How the values were obtained:
Apis mellifera = conditions: acute, mortality
Canidae = conditions: chronic; oral; Dog Other; gross pathology
Colinus virginianus = conditions: oral; for LEC: diet
Folsomia candida = conditions: chronic/long-term
Neomysis kadiakensis = conditions: chronic/long-term; duration: 32 days; reproduction
Aphidius rhopalosiphi = assay: LR50; higher = less toxic; conditions: not reported; mortality
[1] = short-term, duration: 28 days, oral, diet, no effects

Row | Structure (SMILES) | NOAEL (Rattus norvegicus; [1]) [mg/kg-day] | LD50 (Apis mellifera; dermal) [µg/piece] | LD50 (Apis mellifera; oral, unspecified) [µg/piece] | NOAEL (Canidae) [mg/kg-day] | LEL (Colinus virginianus; acute) [mg/kg-day] | LEC (Colinus virginianus; chronic) [mg/kg-day] | LEC (Colinus virginianus; short-term) [mg/kg-day] | LC50 (Cyprinodon variegatus; acute, duration: 96 hours, mortality) [µg/mL] | NOEC (Cyprinodon variegatus; chronic/long-term, duration: 35 days, growth) [mg/L] | NOEC (Folsomia candida) [mg/kg] | NOEC (Neomysis kadiakensis) [mg/L] | LD50 (Rattus norvegicus; acute, oral, mortality) [mg/kg] | NOAEL (Rattus norvegicus; reproduction developmental, other) [mg/kg-day] | LC50 (Tagia sp.; acute) [mg/kg] | NOEC (Tagia sp.; chronic/long-term) [mg/kg] | LR50 (Aphidius rhopalosiphi) [g/ha]
1 | O=C(O)c1cc(C(F)(F)F)nn1[C@@H]1O[C@H](CO)[C@@H](O)[C@H](O)[C@H]1O | 1160 | – | – | – | – | – | – | – | – | – | – | – | – | – | – | –
2 | O=C(O)c1cc(C(F)(F)F)[nH]n1 [5-(Trifluoromethyl)-1H-pyrazole-3-carboxylic acid] | 1160 | – | – | – | – | – | – | – | – | – | – | – | – | – | – | –
3 | Cc1cc(C(F)(F)F)nn1CC(=O)N1CCC(c2nc(C3=NOC(c4c(F)cccc4F)C3)cs2)CC1 (configuration not stated) [Oxathiapiprolin] | – | > 100 | > 40.3 | 13.6 | > 4250 | 107 | > 1280 | > 0.65 | 0.34 | 12.5 | 0.058 | > 5000 | 86.4 | > 500 | 15.4 | 116
